According to ChEMBL document CHEMBL3507680, “University of Dundee, Gates Library screen for HepG2 cell viability”:

assay: Human HepG2 cell viability assay in 384 well format; assay type: toxicity, cell-based; parameters: dose 125 nL, time 70.5 hour; cytotoxicity at 70.5 h: concentration not given beside the values; details: HepG2 cells, read-out: Inhibition

| SMILES | cytotoxicity at 70.5 h |
| --- | --- |
| CN(Cc1ccc(F)cc1)CC1(O)CCN(C(=O)c2ccncc2)C1 (configuration not stated) | -5.43% |
| CC(=O)N1CC[C@@]2(C(=O)Nc3ccccc3)CCN(S(C)(=O)=O)CC[C@@H]12 | -1.82% |
| CCc1nc(C(=O)N2CCN(C)CC2)nn1-c1ccccc1Cl | 16.1% |
| CC(C)N1CCC(CC(=O)NC(C(=O)O)c2ccc(F)cc2)CC1 (configuration not stated) | -10.8% |
| O=C(NCC1COCc2c(-c3cccnc3)nnn2C1)c1cccs1 (configuration not stated) | -15.7% |
| CCOCC(O)CN1CCN(C(=O)c2cc(C)ccc2F)CC1 (configuration not stated) | -3.47% |
| CCc1noc(CNc2ccc(F)cc2OCC2CC2)n1 | -7.55% |
| O=S(=O)(c1ccc(F)cc1)n1cc(Cl)cn1 | -10.6% |
| O=C(NCc1ccc(CN2CCCC2)cc1)NCc1ccon1 | -3.38% |
| CN(CCCC1CCCC1)C(=O)c1cc(CN2CCC(O)CC2)on1 | 10.4% |
| O=C(NCCCn1cccn1)C1(c2ccccc2)CCOCC1 | -10.8% |
| Cn1nc(CNC(=O)NCc2ccc(Cl)cc2)c2c1CCOC2 | -0.247% |
| COc1cccc2c1ccn2CCC(=O)NCCCC(=O)O | -3.23% |
| CCN(C)C1COC2(CCN(C(=O)c3ccc(Cl)cc3)CC2)C1 (configuration not stated) | -9.04% |
| O=C1CC[C@H]2[C@H](CCN2c2ncc(F)cn2)N1c1ccccc1 | -5.86% |
| CCOc1ccc(C2CC(=O)NCc3nc(N)sc32)cc1CO (configuration not stated) | -6.2% |
| O=C(CC1CCC1)N1CCCC(CO)(CC2CC2)C1 (configuration not stated) | -7.78% |
| CN(Cc1ccc2c(c1)OCO2)C(=O)C1CC(c2cccc(F)c2)=NO1 (configuration not stated) | -9.63% |
| CCC(C)n1cnc(S(=O)(=O)N(C)c2cccnc2N(C)C)c1 (configuration not stated) | -7.28% |
| Cc1cc(CNc2cccc(Cl)c2C)no1 | -17.1% |
| CN1CCN(C(=O)C2CCCc3[nH]ncc32)CC1 (configuration not stated) | -1.9% |
| O=C1N(CCCc2ccccc2)CCCC12CCN(C(CO)CO)C2 (configuration not stated) | -4.16% |
| OC1(CN2CCC(Oc3cccc(C(F)(F)F)c3)CC2)CCNC1 (configuration not stated) | -7.31% |

| SMILES | cytotoxicity at 70.5 h |
| --- | --- |
| Cc1nn(CCCNC(=O)C2CCN(S(C)(=O)=O)CC2)c(Cl)c1Cl | -7.28% |
| CCc1c(NCc2ccncc2)cnn1CC(C)C | -5.95% |
| CO[C@@H]1CCN(S(=O)(=O)N(C)C)[C@@H]2CN(Cc3ccncc3)C[C@@H]21 | -1.72% |
| CC(C(=O)NCCc1ccc2c(c1)OCCO2)n1cncn1 (configuration not stated) | -14.6% |
| Cn1nc(-c2cccs2)cc1[C@H]1CN2CC[C@H]1C[C@@H]2CNS(C)(=O)=O | -6.43% |
| O=C(Cn1nc(-c2ccc(F)cc2)oc1=O)NCc1ccncc1 | -12.1% |
| Cc1cc(CN(C)C(=O)C2CCCN(C(=O)c3ccc(Cl)cc3)C2)no1 (configuration not stated) | -10.8% |
| Cc1ccccc1-c1noc(CN2CCOC(Cn3cccn3)C2)n1 (configuration not stated) | -10.3% |
| Cn1cccc1CN1CCC2(CC1)CN(c1ccccc1)C(=O)CO2 | 2.21% |
| CCc1nc(CN2CCN(C(=O)C3CCCCC3)CC2)cs1 | -12.3% |
| CC(C)(C)n1ncc2c(=O)n(CC(=O)NCc3ccco3)cnc21 | -11.6% |
| CN(C)C(C)(C)CNCc1c[nH]nc1-c1cc2ccccc2o1 | 10% |
| CCCn1nc(-c2nc(COC)no2)ccc1=O | -6.41% |
| CCS(=O)(=O)N1CCC2(CCCN(Cc3ccc(F)c(F)c3)C2=O)C1 (configuration not stated) | 1.7% |
| Cc1nc(CN2CCN(C(=O)NC(C)c3cccnc3)CC2)cs1 (configuration not stated) | 30.6% |
| C[C@@H]1CN(C(=O)c2ccc(C#N)nc2)CC[C@@]1(O)C1CCOCC1 | -9.58% |
| COc1ccc(Cc2nnc3n2N=C(C(C)(C)C)CS3)cc1 | 8.14% |
| COc1ccccc1CN1C(=O)O[C@@H]2CN(S(=O)(=O)N(C)C)C[C@@H]21 | -0.664% |
| O=C(c1cc(C2CC2)[nH]n1)N1CCN(Cc2ccc3c(c2)OCO3)CC1 | -2.82% |
| COc1c(C)cnc(CN(C)C(=O)c2cccnc2N(C)C)c1C | -0.657% |
| Cn1nc(CN2CCCC2)c2c1CN(c1cnccn1)CC2 | -3.39% |
| Cc1ccccc1-n1cnc(Cl)c1CO | 18.4% |
| CCn1cc(C(=O)NCc2cccnc2N(C)Cc2ccccc2)cn1 | 2.58% |

| SMILES | cytotoxicity at 70.5 h |
| --- | --- |
| O=C(c1ccc2[nH]c(=O)[nH]c2c1)N1CCC(Nc2cccnn2)CC1 | -9.22% |
| O=C(NCCc1nccs1)C(c1ccccc1)n1cnnn1 (configuration not stated) | -4.94% |
| N#Cc1csc(CNCCOc2ccccc2)c1 | 0.519% |
| CC(=O)N1CCC(c2nc3ccc(NC4CCC4)cn3n2)CC1 | -5.56% |
| O=C1C[C@H]2[C@@H](CCN2Cc2ccccn2)N1CCN1CCOCC1 | 6.45% |
| CS(=O)(=O)NCC1CCCN(c2ccc(C#N)cn2)C1 (configuration not stated) | -8.07% |
| O=C1CC[C@H]2[C@H](CCN2C(=O)C2CCOCC2)N1Cc1ccncc1 | -15.6% |
| COc1cc2[nH]c(=O)c(CN3CCC[C@H]3CO)cc2c(OC)c1OC | 14% |
| CCn1nc(C)c2c1cnn2CCNS(C)(=O)=O | -6.31% |
| COCCC(=O)N(C)Cc1nc(C(F)(F)F)cs1 | -1.8% |
| Cc1ccc(CNC2CCN(CCc3ccncc3)CC2)cc1C | 1.32% |
| Cc1noc(C)c1CN1CCO[C@H]2CN(Cc3ccc(F)cc3)C[C@H]21 | 0.623% |
| CCc1cc(CN(C)Cc2nc(-c3sccc3C)oc2C)on1 | -9.39% |
| CN(C)CCN(Cc1ccsc1)C(=O)C1=NNC(=O)CC1 | -9.01% |
| CCOCc1ncn2c1CN(S(=O)(=O)c1ccc(OC)cc1)CC2 | -9.1% |
| CCN1CCCC(C)(C(=O)NCCc2n[nH]c(=O)[nH]2)C1 (configuration not stated) | -3.84% |
| CN1CC(=O)N(c2ccsc2)CC12CCN(C(=O)c1ccccc1)C2 (configuration not stated) | -12.7% |
| CC(C)(C)N1CC(C(=O)N2CCN(CCn3cncn3)CC2)CC1=O (configuration not stated) | -3.91% |
| Cc1cc(C)n(CC2CCCN2C(=O)c2ccc(N(C)C)nn2)n1 (configuration not stated) | -10.8% |
| Cn1cc(CN2CCCn3cnc(CN4CCCC4=O)c3C2)cn1 | -17.3% |
| Cn1c(NCC(O)c2ccccc2F)c(C#N)c(=O)n(C)c1=O (configuration not stated) | -1.35% |
| COCCN1CCC2(CC1)CC(OCC1CC1)c1ccc(C)cc12 (configuration not stated) | 5.78% |
| CC1CN(C)c2ccccc2N(C(=O)c2c[nH]c(C(C)C)n2)C1 (configuration not stated) | 31.3% |

| SMILES | cytotoxicity at 70.5 h |
| --- | --- |
| COCc1nc(C(=O)N2CCCC2c2cc(C)no2)cs1 (configuration not stated) | -7.8% |
| O=C(O)c1nnn(-c2ccc(F)c(F)c2)c1-c1ccncc1 | -8.76% |
| Cc1cc(C(=O)NCC2CCS(=O)(=O)C2)ccc1NC(=O)c1ccco1 (configuration not stated) | 2.82% |
| COCCN1CCN(Cc2cnc(C(C)C)nc2)CC1 | 16.4% |
| Cc1nc(CNC2(C(=O)OC(C)(C)C)CCCC2)oc1C | -8.39% |
| CC(NC(=O)CCc1cccs1)c1nnc2n1CCCCC2 (configuration not stated) | 8.51% |
| O=C(N[C@@H]1CN(Cc2ccc(F)cc2)C[C@H]1O)c1cscn1 | -1.52% |
| O=C(CCOc1ccccc1F)N1CCCC1Cn1cccn1 (configuration not stated) | 0.51% |
| CC(Cn1cc(Br)cn1)C(=O)Nc1ccc(Cl)cn1 (configuration not stated) | 4.53% |
| Cc1noc(C)c1CN1CCCC2(C1)CN(Cc1nccn1C)CCO2 (configuration not stated) | -8.03% |
| CN1CCN(CC2(O)CCCN(C(=O)Cc3cccc(O)c3)CC2)CC1 (configuration not stated) | -12.4% |
| Cc1ccc2c(c1)CN(C(=O)C1CCCCC1)C(CN(C)C)CO2 (configuration not stated) | 0.565% |
| Cc1noc(C)c1C(=O)NCCc1cccs1 | 0.104% |
| COc1ccc(C2=NOC(CO)C2)cc1 (configuration not stated) | -14.5% |
| Cc1ccc(Nc2nccc(C3CN(CC(N)=O)C3)n2)nc1 | -1.76% |
| COc1cccc(Cn2ncnc2COC(C)C)c1 | -15.5% |
| Cn1cc(-c2nc3c(cc2C(=O)O)CCN(C(=O)C2CC2)CC3)cn1 | -7.13% |
| Cc1cc(C(=O)NCc2ccc(N3CCCC(C(N)=O)C3)cc2)[nH]n1 (configuration not stated) | -2.55% |
| Cn1cc(-c2cc(C(=O)N3CCOCC3)c3ccc(F)cc3n2)cn1 | 24.6% |
| CCc1ccc(C(=O)NC2CCN(c3cnn(C)c3)C2=O)o1 (configuration not stated) | -9% |
| CCN1C(=O)CCCC12CCCN(C(=O)c1cnccn1)C2 (configuration not stated) | -5.91% |
| CC(=O)c1cc(CC(=O)N2CCN(S(=O)(=O)c3ccccc3)CC2)cs1 | -1.54% |
| CC(CNC(=O)NCc1ccc2c(c1)OCO2)CC1(C)OCCO1 (configuration not stated) | -5.24% |

| SMILES | cytotoxicity at 70.5 h |
| --- | --- |
| Cc1cc(CN(C)C(=O)c2ccc(Cl)c(S(C)(=O)=O)c2)no1 | 13.8% |
| CCCN1CCN(C(=O)c2cc3ccccc3cn2)[C@H]2CS(=O)(=O)C[C@H]21 | -12% |
| Cc1cc(-c2nc(-c3cccc(CN4CCOCC4)c3)no2)no1 | 0.395% |
| Cc1cccc(CN2CCc3onc(Cn4cccc4)c3C2)n1 | -2.56% |
| CCn1ccnc1CN(C)Cc1nc(CCC(C)C)no1 | 1.4% |
| Cc1nc(C)n(CC2CCCN2Cc2cc(C)on2)n1 (configuration not stated) | -1.6% |
| Cc1cccc(C(=O)N(C)Cc2cc(Br)cs2)n1 | -27.1% |
| N#Cc1c[nH]c(C(=O)N(Cc2ccc(O)cc2)CC2CC2)c1 | -2.25% |
| Cc1ccsc1CN1C[C@@H]2CN(Cc3cccnc3)CCO[C@@H]2C1 | 10.4% |
| O=C(O)c1cc(-c2cccnc2)cc(S(=O)(=O)NCc2ccccn2)c1 | -5.41% |
| C[C@@H]1CN(C2(C(=O)N3CC[C@H](O)C3)Cc3ccccc3C2)C[C@H](C)O1 | -11.9% |
| CC(C)c1nn(C)c(N2CCOCC2)c1CN[C@H](C)CO | -1.16% |
| c1ccc(OCCCN2CCN(c3ccc4nncn4n3)CC2)cc1 | 2.05% |
| O=C(CN1CC(c2ccccc2)CC1=O)NCc1cc2n(n1)CCNC2 (configuration not stated) | -8.02% |
| COc1ccc(CNCCc2cc(F)cc3c2OCOC3)cc1OC | 2.03% |
| CCc1ccc(-c2noc(Cn3nc(C(N)=O)ccc3=O)n2)cc1 | -6.4% |
| CN(C)CC(=O)N1CCC2(CCc3cc(-c4cccnc4)ccc32)CC1 | -0.278% |
| CN1CCOC(C(=O)Nc2nc(-c3ccc4c(c3)CCC4)n[nH]2)C1 (configuration not stated) | -6.75% |
| CN(C)c1cccc(C(=O)N2CCc3ccc(=O)[nH]c3CC2)c1 | -6.59% |
| CSCC(=O)N1CCc2nc(C)nc(NCc3ccccc3)c2CC1 | -5.43% |
